We go through four substances from paper PMC7972453, “The allosteric modulation of complement C5 by knob domain peptides” (eLife, 2021).

Like-named read-outs stand apart in the source and are kept apart here. Bridges are numbered along the chain shown (N, C = ends). Where no end group is shown, it is not given here.

This experiment concerns the target T1, human C5 (Homo sapiens, UniProt P01031).
T1 construct: tissue TCS Biosciences (serum); host or cells: human serum
The experiment is described as follows: SPR multi-cycle kinetics, binding to C5. The conditions noted are these: for fold drop in affinity of alanine mutant: relative to unmodified K8 or K92, SPR multi-cycle kinetics, n = 3. As for the experimental part:
Kinetics were measured using a Biacore 8K (GE Healthcare, Amersham, UK) with a CM5 chip, which was prepared as follows: 1-ethyl-3-(−3-dimethylaminopropyl) carbodiimide hydrochloride (EDC)/N-hydroxysuccinimide (NHS) was mixed at 1:1 ratio (flow rate, 10 µL/min; contact time, 30 s), and human C5 at 1 µg/mL in pH 4.5 sodium acetate buffer was injected over flow cell one only (flow rate, 10 µL/min; contact time, 60 s). Final immobilisation levels in the range of 2000–3000 RUs were obtained to yield theoretical Rmax values of ~50–60 RU. […] After each injection, the surface was regenerated with two sequential injections of 2 M MgCl2 (flow rate, 30 µL/min; contact time, 30 s). Binding to the reference surface was subtracted, and the data were fitted to a single-site binding model using Biacore evaluation software.
Table 2.6. Validation of molecular interactions by peptide mutagenesis analysis.
Summary of SPR multi-cycle kinetics

The mark [1] stands for this setting: Biacore 8K, HBS-EP pH 7.4, single-site model, mean of n=3, read-out: mean KD.
Setting [2] is: pH 7.4, read-out: mean koff, Biacore 8K, HBS-EP pH 7.4, mean of n=3.
The mark [3] stands for this setting: pH 7.4, read-out: mean kon, Biacore 8K, CM5 chip, HBS-EP pH 7.4, mean of n=3.

On to “K92 F26A: alanine mutant of K92 (CPEGWSECGVAIYGYACGRWGCGHALNSGPNISP)”, for which the dissociation constant (Kd) by setting is: under setting [1], 18.8 nM; (replicate n=1, read-out: KD) 14.9 nM; (replicate n=2, read-out: KD) 21.5 nM; (replicate n=3, read-out: KD) 19.9 nM.
In the case of “K92 W21A: alanine mutant of K92 (CPEGWSECGVAIYGYACGRAGCGHFLNSGPNISP)”, the Kd under setting [1] was found to be 497 nM; the Kd (replicate n=1, read-out: KD) was 437 nM; the Kd (replicate n=2, read-out: KD) was found to be 411 nM; the Kd (replicate n=3, read-out: KD) was determined as 644 nM.
For “SVCPDGFDWGYGCAAGSSRFCTAHDWCCYDERADSHTYGFCTGNRVENLYFQ (disulfide 3-28, 13-21, 27-41 (inferred)) [K8 R22A]”, the “fold drop in affinity of alanine mutant” value is “twofold decrease in affinity”. Further, the mean stoich. ratio (Biacore 8K, mean of n=3) was 0.27. The koff under setting [2] is 0.000599 s⁻¹. Further, the kon under setting [3] stood at 54000 M⁻¹ s⁻¹. For the setting “replicate n=1”, the koff amounted to 0.000565 s⁻¹, the kon is 59200 M⁻¹ s⁻¹ and the stoich. ratio was 0.29. Also, where the note is “replicate n=2”, the koff came to 0.000672 s⁻¹, the kon was 53500 M⁻¹ s⁻¹ and the stoich. ratio is on record as 0.24. For the same substance, for the setting “replicate n=3”, the koff came out at 0.000561 s⁻¹, the kon was found to be 49400 M⁻¹ s⁻¹ and the stoich. ratio is 0.27.
For “SVCPDGFDWGYGCAAGSSRFCTRHDWCCYDEAADSHTYGFCTGNRVENLYFQ (disulfide 3-28, 13-21, 27-41 (inferred)) [K8 R31A]”, the “fold drop in affinity of alanine mutant” value is 715 -fold. Moreover, the mean stoich. ratio (Biacore 8K, mean of n=3) amounted to 0.75. Further, under setting [2], the off-rate constant (koff) amounted to 0.00152 s⁻¹. The kon under setting [3] came to 462 M⁻¹ s⁻¹. Besides, under “replicate n=1”, the koff came out at 0.00182 s⁻¹, the kon was found to be 786 M⁻¹ s⁻¹ and the stoich. ratio turned out to be 0.36. Under “replicate n=2”, the koff turned out to be 0.00125 s⁻¹, the kon stood at 336 M⁻¹ s⁻¹ and the stoich. ratio turned out to be 0.71. Further, where the note is “replicate n=3”, the koff is 0.00149 s⁻¹, the kon is 263 M⁻¹ s⁻¹ and the stoich. ratio is listed as 1.18.

As usually defined, the Kd is the free concentration of one partner at which half of the binding sites on the other are occupied at equilibrium, for simple one-to-one binding. Usually koff stands for the first-order rate constant of dissociation. What is called kon is the second-order rate constant of association.
